# Measurements taken from ChEMBL document CHEMBL1201862, “PubChem BioAssay data set” (2004).
#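 Assay format: 96-well plates, 48-hour exposure. GI50 = concentration required for 50% inhibition of growth.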 The source made the active and inactive calls. Cut-off read from the data, not from the text of the source: active = GI50 up to about 1.1 µM and inactive = higher.
# Tests used:
# Assay in all cases: NCI tumour cell line growth inhibition, 48 h
# [1] = test system: M14
# [2] = test system: A549
# [3] = test system: CCRF-CEM
# [4] = test system: OVCAR-8
# [5] = test system: HOP-92
# [6] = test system: NCI-H23
# [7] = test system: HL-60
# [8] = test system: SK-OV-3
# [9] = test system: U-251
# [10] = test system: HOP-62
# [11] = test system: M19-MEL
# [12] = test system: UO-31
# [13] = test system: A498
# [14] = test system: SR
# [15] = test system: IGROV-1
# [16] = test system: KM12
# [17] = test system: MOLT-4
# [18] = test system: EKVX
# [19] = test system: NCI-H522
# [20] = test system: SNB-19
# [21] = test system: SF-268
# [22] = test system: ACHN
# [23] = test system: HT-29
# [24] = test system: NCI-H460
# [25] = test system: RXF 393
# [26] = test system: TK-10
# [27] = test system: DMS-273
# [28] = test system: SK-MEL-28
# [29] = test system: SF-295
# [30] = test system: SNB-78
# [31] = test system: UACC-257
# [32] = test system: OVCAR-5
# [33] = test system: COLO 205
# [34] = test system: HCC 2998
# [35] = test system: CAKI-1
# [36] = test system: SK-MEL-5
# [37] = test system: DU-145
# [38] = test system: HCT-15
# [39] = test system: SF-539
# [40] = test system: RPMI-8226
# [41] = test system: T47D
# [42] = test system: SN12C
# [43] = test system: 786-0
# [44] = test system: SNB-75
# [45] = test system: UACC-62
# [46] = test system: NCI/ADR-RES
# [47] = test system: SW-620
# [48] = test system: OVCAR-3
# [49] = test system: PC-3
# [50] = test system: Malme-3M
# [51] = test system: K562
# [52] = test system: MDA-MB-231
# [53] = test system: LOX IMVI
# [54] = test system: BT-549
# [55] = test system: MDA-N
# [56] = test system: OVCAR-4
# [57] = test system: HCT-116
# [58] = test system: Hs-578T
# [59] = test system: MDA-MB-435
# [60] = test system: SK-MEL-2
# [61] = test system: NCI-H226
# [62] = test system: MCF7
structure (smiles),measurement,setting,value
COC1=C(OC)C(O)(c2ccccc2)C1=O (stereo not given),GI50,[1],> 100 µM (inactive)
same,GI50,[2],> 100 µM (inactive)
same,GI50,[3],> 100 µM (inactive)
same,GI50,[4],> 100 µM (inactive)
same,GI50,[5],> 100 µM (inactive)
same,GI50,[6],> 100 µM (inactive)
same,GI50,[7],> 100 µM (inactive)
same,GI50,[8],> 100 µM (inactive)
same,GI50,[9],> 100 µM (inactive)
same,GI50,[10],> 100 µM (inactive)
same,GI50,[11],> 100 µM (inactive)
same,GI50,[12],> 100 µM (inactive)
same,GI50,[13],> 100 µM (inactive)
same,GI50,[14],> 100 µM (inactive)
same,GI50,[15],> 100 µM (inactive)
same,GI50,[16],> 100 µM (inactive)
same,GI50,[17],> 100 µM (inactive)
same,GI50,[18],> 100 µM (inactive)
same,GI50,[19],> 100 µM (inactive)
same,GI50,[20],> 100 µM (inactive)
same,GI50,[21],> 100 µM (inactive)
same,GI50,[22],> 100 µM (inactive)
same,GI50,[23],> 100 µM (inactive)
same,GI50,[24],> 100 µM (inactive)
same,GI50,[25],> 100 µM (inactive)
same,GI50,[26],22.2 µM (inactive)
same,GI50,[27],> 100 µM (inactive)
same,GI50,[28],> 100 µM (inactive)
same,GI50,[29],> 100 µM (inactive)
same,GI50,[30],> 100 µM (inactive)
same,GI50,[31],> 100 µM (inactive)
same,GI50,[32],> 100 µM (inactive)
N#CC1(C#N)C2=C(CCCC2)NC(c2ccc(Br)cc2)C1(C#N)C#N (stereo not given),GI50,[33],1.24 µM (inactive)
same,GI50,[34],20.5 µM (inactive)
same,GI50,[1],2.63 µM (inactive)
same,GI50,[2],17.2 µM (inactive)
same,GI50,[3],0.226 µM (active)
same,GI50,[4],2.7 µM (inactive)
same,GI50,[35],1.75 µM (inactive)
same,GI50,[36],15.5 µM (inactive)
same,GI50,[5],4.76 µM (inactive)
same,GI50,[6],12.3 µM (inactive)
same,GI50,[37],12.5 µM (inactive)
same,GI50,[38],2.42 µM
same,GI50,[39],14.2 µM (inactive)
same,GI50,[40],1.91 µM (inactive)
same,GI50,[41],2.26 µM (inactive)
same,GI50,[7],0.286 µM (active)
same,GI50,[42],2.33 µM (inactive)
same,GI50,[8],22.7 µM (inactive)
same,GI50,[9],13.5 µM (inactive)
same,GI50,[43],1.79 µM (inactive)
same,GI50,[10],17.4 µM (inactive)
same,GI50,[44],15.7 µM (inactive)
same,GI50,[45],16.5 µM (inactive)
same,GI50,[12],1.46 µM (inactive)
same,GI50,[13],19 µM (inactive)
same,GI50,[14],0.782 µM (active)
same,GI50,[46],17.2 µM (inactive)
same,GI50,[47],1.31 µM (inactive)
same,GI50,[15],2.83 µM (inactive)
same,GI50,[48],6.56 µM (inactive)
same,GI50,[49],13.7 µM (inactive)
same,GI50,[16],15.1 µM (inactive)
same,GI50,[50],1.16 µM (inactive)
same,GI50,[51],0.762 µM (active)
same,GI50,[17],0.384 µM (active)
same,GI50,[52],11.5 µM (inactive)
same,GI50,[53],2.11 µM (inactive)
same,GI50,[18],12.4 µM (inactive)
same,GI50,[54],13.8 µM (inactive)
same,GI50,[55],4.26 µM (inactive)
same,GI50,[19],0.927 µM (active)
same,GI50,[20],16.5 µM (inactive)
same,GI50,[21],7.78 µM (inactive)
same,GI50,[56],7.76 µM (inactive)
same,GI50,[57],1.84 µM (inactive)
same,GI50,[22],1.77 µM (inactive)
same,GI50,[23],2.55 µM (inactive)
same,GI50,[24],24.1 µM (inactive)
same,GI50,[58],17.1 µM (inactive)
same,GI50,[25],2.24 µM (inactive)
same,GI50,[26],4.44 µM (inactive)
same,GI50,[59],3.68 µM (inactive)
same,GI50,[60],15.6 µM (inactive)
same,GI50,[28],12.6 µM (inactive)
same,GI50,[29],22.8 µM (inactive)
same,GI50,[61],20.2 µM (inactive)
same,GI50,[31],4.22 µM (inactive)
same,GI50,[62],5.32 µM (inactive)
same,GI50,[32],9.95 µM (inactive)
NC1(c2cc3ccccc3s2)CCCC1,GI50,[33],22.9 µM (inactive)
same,GI50,[34],21.2 µM (inactive)
same,GI50,[1],25.5 µM (inactive)
same,GI50,[2],90.6 µM (inactive)
same,GI50,[3],16.9 µM (inactive)
same,GI50,[4],> 100 µM (inactive)
same,GI50,[35],> 100 µM (inactive)
same,GI50,[36],24.1 µM (inactive)
same,GI50,[5],51.6 µM (inactive)
same,GI50,[6],> 100 µM (inactive)
same,GI50,[37],> 100 µM (inactive)
same,GI50,[38],65.2 µM
same,GI50,[39],18.5 µM (inactive)
same,GI50,[40],17.7 µM (inactive)
same,GI50,[41],36.3 µM (inactive)
same,GI50,[7],18.3 µM (inactive)
same,GI50,[42],57.5 µM (inactive)
same,GI50,[8],> 100 µM (inactive)
same,GI50,[9],48 µM (inactive)
same,GI50,[43],54.2 µM (inactive)
same,GI50,[10],> 100 µM (inactive)
same,GI50,[44],67.9 µM (inactive)
same,GI50,[45],50.4 µM (inactive)
same,GI50,[12],69.2 µM (inactive)
same,GI50,[13],> 100 µM (inactive)
same,GI50,[14],21.1 µM (inactive)
same,GI50,[46],78.9 µM (inactive)
same,GI50,[47],49.2 µM (inactive)
same,GI50,[15],> 100 µM (inactive)
same,GI50,[48],> 100 µM (inactive)
same,GI50,[49],32 µM (inactive)
same,GI50,[16],43.9 µM (inactive)
same,GI50,[50],36.9 µM (inactive)
same,GI50,[51],25.2 µM (inactive)
same,GI50,[17],18.4 µM (inactive)
same,GI50,[52],83.8 µM (inactive)
same,GI50,[53],36.5 µM (inactive)
same,GI50,[18],> 100 µM (inactive)
same,GI50,[54],> 100 µM (inactive)
same,GI50,[55],48.9 µM (inactive)
same,GI50,[19],92.5 µM (inactive)
same,GI50,[20],> 100 µM (inactive)
same,GI50,[21],> 100 µM (inactive)
same,GI50,[56],42.6 µM (inactive)
same,GI50,[57],33.8 µM (inactive)
same,GI50,[22],86.5 µM (inactive)
same,GI50,[23],32.9 µM (inactive)
same,GI50,[24],33.6 µM (inactive)
same,GI50,[58],> 100 µM (inactive)
same,GI50,[25],43.8 µM (inactive)
same,GI50,[26],34.1 µM (inactive)
same,GI50,[59],41 µM (inactive)
same,GI50,[60],58.9 µM (inactive)
same,GI50,[28],23.7 µM (inactive)
same,GI50,[29],71.3 µM (inactive)
same,GI50,[61],> 100 µM (inactive)
same,GI50,[31],31 µM (inactive)
same,GI50,[62],57.8 µM (inactive)
same,GI50,[32],> 100 µM (inactive)
